Test results taken from publication PMC6150365, “Simultaneous Determination of Seven Components in Rat Plasma by the UPLC-MS/MS Method and Application of Pharmacokinetic Studies to SimiaoYong’an Decoction” (Molecules : A Journal of Synthetic Chemistry and Natural …, 2017).
Each block holds one compound with its values, some of them ahead of it.

Experiment: Pharmacokinetic study in rats after oral administration of SYD extract and its single and combined TCM extracts (UPLC-MS/MS of plasma)
Settings: male, Sprague-Dawley, rat, plasma, po, n = 6; for AUC(0-t) / AUC(0-inf) / MRT last / MRT inf / Tmax / Cmax: rat plasma; for MRT last: MRT(0–t); for MRT inf: MRT(0–∞)
[1] = 2.49 g/kg, oral SN extract 2.49 g/kg
[2] = 2.49 g/kg, Tmax, oral SN extract 2.49 g/kg
[3] = 2.49 g/kg, t1/2, rat plasma, oral SN extract 2.49 g/kg
[4] = 3.38 g/kg extract (6.67 g/kg as herbs), oral SN + GU extract
[5] = 3.38 g/kg extract (6.67 g/kg as herbs), Tmax, oral SN + GU extract
[6] = 3.38 g/kg extract (6.67 g/kg as herbs), t1/2, rat plasma, oral SN + GU extract
[7] = 3.38 g·kg^−1 (extract), oral SN + GU extract
[8] = 3.38 g·kg^−1 extract, oral SN + GU extract
[9] = 3.98 g/kg extract (8.33 g/kg as herbs), oral SN + AS extract
[10] = 3.98 g·kg^−1, t1/2, rat plasma, oral SN + AS extract
[11] = 3.98 g·kg^−1 extract, oral SN + AS extract
[12] = 4.5 g·kg^−1 (extract), oral LJ + SN extract
[13] = 4.5 g·kg^−1 (extract), t1/2, rat plasma, oral LJ + SN extract
[14] = 4.5 g·kg^−1 extract, oral LJ + SN extract
[15] = 4.73 g/kg, oral LJ + SN + GU extract 4.73 g/kg
[16] = 4.73 g/kg, Tmax, oral LJ + SN + GU extract 4.73 g/kg
[17] = 4.73 g/kg, t1/2, rat plasma, oral LJ + SN + GU extract 4.73 g/kg
[18] = 5.43 g/kg, oral LJ + SN + AS extract 5.43 g/kg
[19] = 5.43 g/kg, Tmax, oral LJ + SN + AS extract 5.43 g/kg
[20] = 5.43 g/kg, t1/2, rat plasma, oral LJ + SN + AS extract 5.43 g/kg
[21] = 8.25 g/kg, oral SYD extract 8.25 g/kg
[22] = 8.25 g/kg, Tmax, oral SYD extract 8.25 g/kg
[23] = 8.25 g/kg, t1/2, rat plasma, oral SYD extract 8.25 g/kg
[24] = […], Tmax, oral SN + AS + GU extract […]
[25] = […], t1/2, rat plasma, oral SN + AS + GU extract […]

Description: Pieces of LJ, SN, AS and GU were weighed according to the proportion of 3:3:2:1 with appropriate amounts. The mixed pieces were crushed and decocted two times (60 min each time) with water (1:10 w/v) after being soaked for 60 min. The decoctions were then combined and condensed to the concentration of 0.5 g/mL, after which 95% ethanol was slowly added to the concentrate until a final ethanol concentration of 70% was reached. The SYD solution was set at room temperature overnight and then was filtered. The solvent was recovered, and the residue was dried under reduced pressure. A certain amount of the water extract of SYD was weighed and then dissolved with purified water for intragastric (oral) administration solution. The single herbs and different combination groups such as LJ, SN, AS, GU, LJ + SN, LJ + AS, LJ + GU, SN + AS, SN + GU, AS + GU, LJ + SN + AS, LJ + SN + GU, LJ + AS + GU and SN + AS + GU were prepared according to the procedure of SYD.
Male Sprague-Dawley (SD) rats (body weight 250 ± 10 g) were supplied by the SPF (Beijing) Biotechnology Co., Ltd. (Certificate No.: SCXK 2016-0002, Beijing, China). The animals were maintained in controlled conditions (temperature 20–25 °C, relative humidity 55–60% and 12-h light/12-h dark cycle) with free access to standard laboratory food and water for seven days of acclimation and then fasted for 12 h before each experiment but allowed to drink freely during this time.
Ninety male SD rats were randomly separated into 15 groups and administered a dosage of extract via gastric gavage once per day; detailed information about the oral daily dose of SYD extract and the corresponding single and combined TCMs (LJ, SN, AS, GU, LJ + SN, LJ + AS, LJ + GU, SN + AS, SN + GU, AS + GU, LJ + SN + AS, LJ + SN + GU, LJ + AS + GU, SN + AS + GU and SYD) is listed in Table 4.
Each plasma sample (200 μL) with 50 μL IS solution added was spiked into 100 μL 1% formic acid distilled water solution and then vortexed for 1 min. Protein was precipitated by adding 600 μL of methanol to the mixture. After being vortexed and sonicated, the samples were centrifuged at 25,000 r/min, 4 °C for 10 min. The supernatant of each sample was transferred to a new 2-mL centrifuge tube and evaporated to dryness by N2 at 40 °C. Finally, the residue was dissolved in 100 μL methanol–water (1:1, v/v), followed by centrifugation at 30,000 r/min, 4 °C for 10 min, and 10-μL supernatant aliquots were injected into the UPLC-MS/MS system for analysis.
The SYD was decomposed into 15 groups of compatibility combinations (LJ, SN, AS, GU, LJ + SN, LJ + AS, LJ + GU, SN + AS, SN + GU, AS + GU, LJ + SN + AS, LJ + SN + GU, LJ + AS + GU, SN + AS + GU and SYD). The 15 combinations were weighed according to the proportion of 3:3:2:1 with appropriate amounts and prepared by the method described in “Section 3.2”. Six male SD rats (body weight 250 ± 10 g) of each compatibility group were used in the pharmacokinetic study. After 12-h fast, rats of the different groups were orally administered the respective extract dissolved in saline (Table 4). Venous blood (0.45 mL) was obtained from the orbit vein and collected in heparin-pretreated polypropylene centrifuge tubes at 0.083 h, 0.17 h, 0.25 h, 0.50 h, 0.75 h, 1.0 h, 1.5 h, 2.0 h, 3.0 h, 4.0 h, 6.0 h, 8.0, 12 h and 24 h post-dose. The plasma was separated by centrifugation at 8000 r/min for 10 min and then stored at −20 °C until analysis. The amount of each analyte in the plasma was estimated by UPLC-MS/MS analysis as described in Section 3.5.
Non-compartmental methods using Phoenix WinNonlin 7.0 software provided by the Beijing University of Chinese Medicine were used to analyze plasma concentration versus time profiles and to estimate the following pharmacokinetic parameters: terminal elimination half-lives (t1/2), area under the plasma concentration versus time curve from zero to last sampling time (AUC), and the mean residence time (MRT).

AUC(0-t) [1]: 90 ± 30 ng·h/mL | AUC(0-inf) [1]: 110 ± 20 ng·h/mL | MRT last [1]: 3.03 ± 0.37 h | MRT inf [1]: 18.1 ± 3.41 h | Tmax [2]: 1.25 ± 0.59 h | half-life [3]: 10.7 ± 6.13 h | MRT last [4]: 2.86 ± 1.21 h | MRT inf [4]: 4.99 ± 3.19 h | Tmax [5]: 1.11 ± 0.52 h | half-life [6]: 9.91 ± 4.62 h | AUC(0-t) [7]: 410 ± 60 ng·h/mL | AUC(0-inf) [7]: 420 ± 80 ng·h/mL | Cmax [8]: 330 ± 50 ng/mL | AUC(0-t) [9]: 450 ± 30 ng·h/mL | AUC(0-inf) [9]: 460 ± 30 ng·h/mL | MRT last [9]: 2.85 ± 1.25 h | MRT inf [9]: 5.01 ± 3.31 h | Tmax (3.98 g·kg^−1, Tmax, oral SN + AS extract): 1.03 ± 0.49 h | half-life [10]: 10 ± 4.72 h | Cmax [11]: 400 ± 20 ng/mL | MRT last [12]: 2.88 ± 1.23 h | MRT inf [12]: 5.22 ± 3.5 h | Tmax (4.5 g·kg^−1 (extract), Tmax, oral LJ + SN extract): 1.07 ± 0.54 h | half-life [13]: 10.3 ± 5.06 h | AUC(0-t) [14]: 390 ± 460 ng·h/mL | AUC(0-inf) [14]: 400 ± 460 ng·h/mL | Cmax [14]: 270 ± 330 ng/mL | AUC(0-t) [15]: 220 ± 90 ng·h/mL | AUC(0-inf) [15]: 230 ± 190 ng·h/mL | Cmax [15]: 150 ± 150 ng/mL | MRT last [15]: 2.95 ± 0.82 h | MRT inf [15]: 7.88 ± 6.88 h | Tmax [16]: 1.29 ± 0.46 h | half-life [17]: 11.7 ± 6.52 h | AUC(0-t) [18]: 180 ± 130 ng·h/mL | AUC(0-inf) [18]: 200 ± 130 ng·h/mL | Cmax [18]: 140 ± 130 ng/mL | MRT last [18]: 3.05 ± 0.7 h | MRT inf [18]: 8.16 ± 6.76 h | Tmax [19]: 1.38 ± 0.44 h | half-life [20]: 11.8 ± 6.58 h | AUC(0-t) [21]: 300 ± 290 ng·h/mL | AUC(0-inf) [21]: 310 ± 290 ng·h/mL | Cmax [21]: 180 ± 200 ng/mL | MRT last [21]: 3.01 ± 0.69 h | MRT inf [21]: 7.01 ± 5.95 h | Tmax [22]: 1.38 ± 0.44 h | half-life [23]: 11.4 ± 6.34 h | Tmax [24]: 1.38 ± 0.44 h | half-life [25]: 11.6 ± 6.42 h
SMILES: COc1ccc(CCO[C@@H]2O[C@H](CO[C@@H]3OC[C@H](O)[C@H](O)[C@H]3O)[C@@H](OC(=O)/C=C/c3ccc(O)c(OC)c3)[C@H](O[C@@H]3O[C@@H](C)[C@H](O)[C@@H](O)[C@H]3O)[C@H]2O)cc1O [Angoroside C, angoroside C]

AUC(0-t) [1]: 310 ± 110 ng·h/mL | AUC(0-inf) [1]: 320 ± 110 ng·h/mL | Cmax [1]: 110 ± 50 ng/mL | MRT last [1]: 4.75 ± 1.17 h | MRT inf [1]: 5.69 ± 3.19 h | Tmax [2]: 1.08 ± 0.47 h | half-life [3]: 3.34 ± 3.36 h | MRT last [4]: 5.72 ± 2.55 h | MRT inf [4]: 47.5 ± 78.2 h | Tmax [5]: 1.25 ± 0.59 h | half-life [6]: 18.3 ± 6.9 h | AUC(0-t) [7]: 80 ± 10 ng·h/mL | AUC(0-inf) [7]: 110 ± 80 ng·h/mL | Cmax [8]: 50 ± 10 ng/mL | AUC(0-t) [9]: 100 ± 70 ng·h/mL | AUC(0-inf) [9]: 130 ± 90 ng·h/mL | MRT last [9]: 4.51 ± 2.04 h | MRT inf [9]: 41.9 ± 67.3 h | half-life [10]: 16.6 ± 1.4 h | Cmax [11]: 70 ± 10 ng/mL | MRT last [12]: 5.32 ± 1.39 h | MRT inf [12]: 46.3 ± 70.7 h | half-life [13]: 15.8 ± 1.19 h | AUC(0-t) [14]: 60 ± 10 ng·h/mL | AUC(0-inf) [14]: 90 ± 10 ng·h/mL | Cmax [14]: 30 ng/mL | AUC(0-t) [15]: 150 ± 70 ng·h/mL | AUC(0-inf) [15]: 190 ± 110 ng·h/mL | Cmax [15]: 80 ng/mL | MRT last [15]: 3.17 ± 0.59 h | MRT inf [15]: 22.6 ± 31.1 h | Tmax [16]: 1.79 ± 0.51 h | half-life [17]: 13.3 ± 4.59 h | AUC(0-t) [18]: 110 ± 80 ng·h/mL | AUC(0-inf) [18]: 110 ± 80 ng·h/mL | Cmax [18]: 50 ng/mL | MRT last [18]: 3.16 ± 0.68 h | MRT inf [18]: 13 ± 19.9 h | Tmax [19]: 1.63 ± 0.49 h | half-life [20]: 9.79 ± 5.03 h | AUC(0-t) [21]: 120 ± 90 ng·h/mL | AUC(0-inf) [21]: 140 ± 90 ng·h/mL | Cmax [21]: 70 ± 70 ng/mL | MRT last [21]: 3.92 ± 1.31 h | MRT inf [21]: 19.8 ± 8.74 h | Tmax [22]: 1.5 h | half-life [23]: 11.2 ± 2.64 h | Tmax [24]: 0.83 ± 0.13 h | half-life [25]: 15.5 ± 1.54 h
SMILES: C[C@]1(OC(=O)/C=C/c2ccccc2)C[C@@H](O)[C@]2(O)C=CO[C@@H](O[C@@H]3O[C@H](CO)[C@@H](O)[C@H](O)[C@H]3O)[C@@H]21 [Harpagoside, harpagoside]
